Assay results: paper PMC4549706, “Rational Design of Highly Potent and Slow-Binding Cytochrome bc1 Inhibitor as Fungicide by Computational Substitution Optimization” (Scientific Reports, 2015)
Like-named read-outs stand apart in the source and are kept apart here.

Legend:
[1] = tested on: Pseudoperonospora cubensis (Berk. et Curt.); test: In vivo fungus growth inhibitory rate at 200 mg/L, downy mildew
Procedure: [a] Compounds are named as “series number-site number plus substitution group number” a: -F, b: -Cl, c:
-Br, d: -NO2, e: -CH3, f: -CF3, g: -OCH3, h: -OH, i: -NH2, j: -COOH.
[b] Substitution number and group.
[c] CH is “series 1” and N is “series 2”. […]
Table S2 Fungus growth inhibitory rate of target compounds (200 mg/L).
Comp. No. R X Sphaerotheca fuliginea Pseudoperonospora cubensis

[2] = target: T1, porcine succinate-cytochrome c reductase (SCR, the mixture of complex II and bc1) (Sus scrofa, UniProt P24964); test: SCR activity, succinate-cytochrome c system (Assay 1); format: biochemical; details: for ligand efficiency (LE): from Ki against bc1 complex; for binding behaviour to bc1 complex (slow or fast binding): progress curves of SCR-catalysed reaction
T1 construct: T h e S C R f r o m p o r c i n e h e a r t; from tissue; host or cells: porcine heart
T1 sequence (P24964 whole entry, one chain of several): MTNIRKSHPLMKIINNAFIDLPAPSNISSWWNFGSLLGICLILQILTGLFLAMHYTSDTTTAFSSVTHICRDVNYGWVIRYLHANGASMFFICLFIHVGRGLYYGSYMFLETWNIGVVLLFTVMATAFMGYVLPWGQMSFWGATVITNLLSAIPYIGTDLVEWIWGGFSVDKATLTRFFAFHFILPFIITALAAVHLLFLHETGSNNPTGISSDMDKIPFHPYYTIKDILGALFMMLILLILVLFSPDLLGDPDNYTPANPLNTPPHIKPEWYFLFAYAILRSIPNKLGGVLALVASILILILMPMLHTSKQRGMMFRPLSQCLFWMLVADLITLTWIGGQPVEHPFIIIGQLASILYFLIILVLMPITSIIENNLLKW
Procedure: Figure 4 Slow-binding inhibition mechanism. (A,B) Effect of various concentrations of cytochrome c and compound 18 on the inhibition of SCR activity. Each reaction mixture contains 100 mM, pH 7.4), EDTA (0.3 mM), succinate (20 mM), SCR (0.1 nM), and indicated amounts of cytochrome c and compound 18. The assays were performed in the presence of (A) 18 (35 nM) and a specified amount of cytochrome c (1, 4 μM; 2, 8 μM; 3, 20 μM; and 4, 48 μM) or (B) cytochrome c (60 μM) and various concentrations of compound 18 (1, 0 nM; 2, 15 nM; 3, 20 nM; 4, 30 nM; 5, 40 nM; and 6, 50 nM). Experimental data are shown as coloured dots and theoretical values are represented as black solid lines. Insets: plots of Kobs against concentration of (A) cytochrome c and (B) compound 18. […] Each reaction mixture contains 100 mM, pH 6.5), EDTA (2 mM), lauryl maltoside (750 μM), oxidised cytochrome c (100 μM), SCR (0.05 nM), and indicated amounts of DBH2 and compound 18. Two representative sets of inhibitory assays were performed in the presence of (C) DBH2 (20 μM) and a specified amount of compound 18 (1, 20 nM; 2, 40 nM; 3, 60 nM; 4, 80 nM), or (D) DBH2 (120 μM) and a specified amount of compound 18 (1, 40 nM; 2, 80 nM; 3, 120 nM; 4, 180 nM). Insets: plots of Kobs against concentration of compound 18. (E) Plot of the apparent rate constant A against concentration of DBH2. Inset: Plot of 1/A against concentration of DBH2. (F) Plot of the apparent rate constant B against concentration of DBH2.
The porcine succinate-cytochrome c reductase (SCR, the mixture of complex II and bc1) was prepared essentially according to the previously reported method. The enzymatic activities of SCR, complex II, and bc1 complex were analyzed in respective reaction mixtures as reported previously. Kinetic analyses for the inhibition mechanism were performed as previously described. […]
inhibitory kinetics study of bc1 inhibitors 8. […]
synthesized compounds against bc1 complex were examined by SCR. As previously described 9, the combined activity of SCR can be determined by using succinate and cytochrome c as substrates (Assay 1). We also measured the activity of complex II by using succinate and 2,6-dichloroindophenol (DCIP) as substrates (Assay 2), or the activity of bc1 complex by using decylubiquinol (DBH2) and cytochrome c as substrates (Assay 3). […]
redA 10, was used to represent the enzyme concentration. The three redox reactions used in this study were summarized as follows.
Assay 1: succinate + cytochrome c3+ S C R fumarate + cytochrome c2+
Assay 2: succinate + DCIP complex II fumarate + DCIPH 2
Assay 3: DBH 2 + cytochrome c3+ bc1 complex DB + cytochrome c2+
All assays were performed at 23 °C. The enzymatic activity of SCR (Assay 1) was carried out in 1.8 mL of reaction mixture containing 100 mM PBS (pH 7.4), 0.3 mM EDTA, and indicated concentrations of succinate and oxidized cytochrome c (Sigma-Aldrich). The activity of succinate-ubiquinone reductase (complex II, Assay 2) was determined in essentially the same reaction mixture, except for the replacement of cytochrome c with DCIP (Alfa Aesar). […] DBH 2 was prepared through reduction of decylubiquinone by dithionite (Sigma-Aldrich) as previously described 11,12. The nonionic detergent LM was used to decrease the interfering non-enzymatic activity though it slightly […]

SMILES	Fungus growth inhibitory rate, Pseudoperonospora cubensis [1]	ligand efficiency (LE) [2]	binding behaviour to bc1 complex (slow or fast binding) [2]	Fungus growth inhibitory rate, Pseudoperonospora cubensis ([1]; listed as Comp. 18) [%]	Ki [2] [nM]	inhibition type with respect to cytochrome c ([2]; Assay 1, varied cytochrome c)	∆∆Gexp ([2]; Table S1, experimental binding free energy change vs compound 1) [kcal/mol]	ΔΔGexp ([2]; experimental binding free energy change relative to compound 1) [kcal/mol]	kon ([2]; read-out: association rate constant k+0) [M⁻¹ s⁻¹]	koff ([2]; read-out: dissociation rate constant k−0) [s⁻¹]
CO/C=C(/C(=O)OC)c1ccccc1Oc1cc(Oc2ccccc2C#N)ncn1 [AZ, Azoxystrobin, reference compound]	94%	0.3 kcal mol^−1 per non-H atom	fast-binding							
COC=C(C(=O)OC)c1ccccc1CSc1nc2cc(OC)ccc2s1 [Compound 18]	completely inhibited	0.45 kcal mol^−1 per non-H atom	slow-binding	100	4.1 ± 0.5	non-competitive	-1.20	-1.20	660000 ± 10000	0.00271 ± 0.00031
